# What was measured:
# [1] = target: T1, recombinant HDAC-1 (Homo sapiens, UniProt Q13547); assay: HDAC biochemical quench assay; details: recombinant HDAC-1 purified from HEK 293 cells, 1 uM peptide substrate, 90 min at room temperature
# T1 construct: made in house; host or cells: HEK 293 cells
# Text: The function of histone deacetylase (HDAC) is the deacetylation of lysines in e.g. histone H4. A peptide of 17 amino acids derived from histone H4 was labeled with TAMRA at the C-terminus and QSY-7 at the N-terminus and was used as a substrate (TAMRA-first17 aa of histone H4-QSY7). Following deacetylation by HDAC, the enzyme Lys C is able to cleave the peptide after lysine. […] Inhibition of HDAC by compounds results in low signals because Lys C could not cleave the substrate and the quench effect persists.
# For dose response curves, 10 concentrations were diluted 1:3 starting at 30 uM. 10 ul compound dilution were put into each well of a 384 well plate. 10 ul HDAC were added (recombinant HDAC-1 purified from HEK 293 cells; enzyme activity has to be assessed for each preparation). 10 ul peptide substrate was added (1 uM final concentration, derived from 1 mM stock solution diluted 1:1000 in test buffer). After 90 min incubation at room temperature, the reaction was stopped by addition of 20 ul test buffer including 3 ug/ml Lys C and 0.075% SDS. After overnight incubation the fluorescence signal of TAMRA was measured (Victor 2 from Wallac, absorption 544 nm, emission 590 nm). The O.D. of DMSO-treated control wells is 100%, the % inhibition of compound treated wells is calculated in relation to 100%. Based on 10 concentrations a IC50 curve is generated by using XL.fit3.
# Test buffer used: a mixture of 10 mM Hepes pH8, 10 mM NaCl, 10% Glycerol, 0.005% Triton X100, 0.1 mM EDTA, 0.1 mM TCEP. As plates were used 384 well plates (black, Greiner, 781077).
# [2] = tested on: HT-29 cells (human colon carcinoma cell line); assay: MTT anti-proliferation assay on HT-29 cells; type: cell-based; details: Homo sapiens, 120 h, 384 well plates, 5 days, read-out: IC50 HT29 384
# Text: MTT (3-(4,5-dimethylthiazol-2-yl)-2,5-diphenyl tetrazolium bromide) is widely used for the quantitative determination of cytotoxic effects or in vitro chemosensitivity of tumor cells. The assay is based on the cleavage of the yellow tetrazolium salt (MTT) to purple formazan crystals by metabolic active cells. For details, see Rubinstein, L. V., et al., J. Natl. Cancer Inst. 82 (1990) 1113.
# We proceeded as follows: HT-29 cells (human colon carcinoma cell line) were cultivated in RPMI 1640, 2.5% FCS, 2 mM glutamine, 100 u/ml penicillin, 100 ug/ml streptomycin. For the assay the cells were seeded in 384 well plates, 900 cells per well, in the same medium. At the next day, the compounds (dissolved 10 mM in DMSO) were added in various concentrations ranging from 30 uM to 1.5 nM. After 5 days, the MTT assay was done mainly according to the instructions of the manufacturer (Cell proliferation kit I, MTT, from Roche Molecular Biochemicals). In brief: MTT labeling reagent was added to a final concentration of 0.5 mg/ml, added and incubated for 4 hrs at 37° C., 5% CO2. During this incubation time purple formazan crystals are formed. After addition of the solubilization solution (20% SDS in 0.02 M HCl) the plates were incubated overnight at 37° C., 5% CO2. After careful mixing, the plates were measured in Victor 2 (scanning multiwell spectrophotometer, Wallac) at 550 nm.
# A decrease in number of living cells results in a decrease in the total metabolic activity in the sample. The decrease directly correlates to the amount of purple color resulting from the solubilization of the purple formazan crystals. Determination of IC50 was done using XL-fit.
# [3] = tested on: acetylated histone H3 in HT29 human colon carcinoma xenografts; assay: Acetylation levels of histone H3 in HT29 tumor bearing mice; type: in vivo, NMRI nude mice; details: for acetylated H3, BLU/1 μg histone protein: HT29 xenograft, mean; for acetylated H3, BLU % (BLU percent versus vehicle control): vehicle = 100
# Description: Determination of Acetylation Levels of Histone H3 in Tumor Bearing Mice
# The HT-29 cell line is derived from a human colon adenocarcinoma and was obtained from ATCC and kept in an in house working cell bank for pharmacological use. Cells were cultured in RPMI1640/2 mM L-Glutamin medium supplemented with 10% heat inactivated FCS. For inoculation HT29 tumor cells are removed (Trypsin-EDTA, 50 U/mg) from culture flasks and transferred into culture medium (RPMI 1640, 10% heat inactivated FCS), washed and resuspended in sterile PBS to achieve a final cell concentration of 5×10^6/100 μl. Cell suspension was carefully mixed by regular shaking to avoid cell aggregation and filled into a 1.0 ml graded syringe. After s.c. inoculation of HT29 human colon carcinoma cells (5×10^6/100 μl) in the right upper quarter of ventral breast region of NMRI nude mice, animals were inspected 2–3 times per week until xenografts reached a volume of roughly 1000 mm^3 or more, sufficient for analysis of histone acetylation. After single i.p. application of 400 mg/kg of the compound of example 1, formulated as microsuspension in 7.5% modified gelatin with 0.22% NaCl solution, the respective group of animals was sacrificed 3, 6, 12, and 24 h after dosing. Tumors were excised for analysis of acetylated histones (H3). An aliquot of tumors (ca. 200 mg) was analyzed for acetylated H3. Histones were extracted from xenografts by standardized methods (Richon, V. M., et al., PNAS 97 (2000) 10014–10019; Yoshida, M., et al., J. Biol. Chem. 265 (1990) 17174–17179), separated and acetylated H3 identified by Slot Blot and Immuno Blot techniques (SB-IB, Bio-Rad Laboratories GmbH, Munich, Germany) using anti-acetyled-H3 Pabs (UpState Biotechnology, Cat. #06-599). Histone protein was determined (Pierce Kit) and adjusted to 3 mg/ml to apply a standardized amount of 1 μg histone protein for H3 analysis in SB-IB. Quantification of acetylated H3 was performed by ECL (Enhanced Chemo Luminescence, Amersham Pharmacia, Hybond™ ECL™ Nitrocellulose membrane) measuring bioluminescence with the Lumi-Imager instrument (Roche Diagnostics). Data are expressed either as BLU/μg histone protein (BLU=Bio-Luminescence-Units), or as BLU percent versus vehicle control. After single administration of the compound of example 1, there was a marked and significant increase of acetylated H3 lasting for up to 24 h compared to the vehicle groups. The maximum acetylation was attained 6 h after dosing. A tabulated summary of the mean values and percentual changes are depicted below.
# [4] = 3 h after single i.p. 400 mg/kg
# [5] = 6 h after single i.p. 400 mg/kg
# [6] = 12 h after single i.p. 400 mg/kg
# [7] = 24 h after single i.p. 400 mg/kg
# T1 sequence (Q13547 whole entry, species assumed): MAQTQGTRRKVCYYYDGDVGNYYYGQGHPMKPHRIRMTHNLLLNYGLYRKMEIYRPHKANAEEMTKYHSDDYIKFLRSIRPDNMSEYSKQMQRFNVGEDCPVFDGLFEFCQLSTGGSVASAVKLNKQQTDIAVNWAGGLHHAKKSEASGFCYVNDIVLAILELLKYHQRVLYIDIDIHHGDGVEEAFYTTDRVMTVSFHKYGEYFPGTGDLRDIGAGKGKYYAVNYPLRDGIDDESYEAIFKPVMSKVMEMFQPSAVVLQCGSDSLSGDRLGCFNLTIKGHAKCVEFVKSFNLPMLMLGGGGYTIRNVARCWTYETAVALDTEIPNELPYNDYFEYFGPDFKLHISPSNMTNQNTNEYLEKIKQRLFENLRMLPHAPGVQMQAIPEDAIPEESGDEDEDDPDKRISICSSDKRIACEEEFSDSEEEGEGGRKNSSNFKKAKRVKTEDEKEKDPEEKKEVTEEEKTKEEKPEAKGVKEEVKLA
compound,measurement,setting,value
"C[C@@H](NC(=O)c1ccc(C(=O)NO)s1)c1ccccc1 [Example 1, (R)-thiophene-2,5-dicarboxylic acid 2-hydroxyamide 5-[(1-phenyl-ethyl)-amide]]",IC50,[1],3.4 nM
same,IC50,[2],170 nM
same,"acetylated H3, BLU/1 μg histone protein",[3]; [4],57824 BLU/1 μg
same,"acetylated H3, BLU % (BLU percent versus vehicle control)",[3]; [4],466%
same,"acetylated H3, BLU/1 μg histone protein",[3]; [5],98717 BLU/1 μg
same,"acetylated H3, BLU % (BLU percent versus vehicle control)",[3]; [5],502%
same,"acetylated H3, BLU/1 μg histone protein",[3]; [6],75378 BLU/1 μg
same,"acetylated H3, BLU % (BLU percent versus vehicle control)",[3]; [6],447%
same,"acetylated H3, BLU/1 μg histone protein",[3]; [7],40965 BLU/1 μg
same,"acetylated H3, BLU % (BLU percent versus vehicle control)",[3]; [7],269%
same,duration of marked and significant increase of acetylated H3 compared to vehicle,[3]; single i.p. 400 mg/kg,up to 24 h
same,time of maximum acetylation after dosing,[3]; single i.p. 400 mg/kg,6 h
